{
  "source": "patent US20230010886A1",
  "about": "(SUZHOU PUHE BIOPHARMA CO., LTD., priority 2019, published 2023)",
  "target": "T1, Full length SHP2 enzyme (Homo sapiens, UniProt Q06124)",
  "T1 construct": "Full length SHP2 enzyme (diluted to 0.1 nM in reaction buffer)",
  "T1 sequence (Q06124 1-593)": "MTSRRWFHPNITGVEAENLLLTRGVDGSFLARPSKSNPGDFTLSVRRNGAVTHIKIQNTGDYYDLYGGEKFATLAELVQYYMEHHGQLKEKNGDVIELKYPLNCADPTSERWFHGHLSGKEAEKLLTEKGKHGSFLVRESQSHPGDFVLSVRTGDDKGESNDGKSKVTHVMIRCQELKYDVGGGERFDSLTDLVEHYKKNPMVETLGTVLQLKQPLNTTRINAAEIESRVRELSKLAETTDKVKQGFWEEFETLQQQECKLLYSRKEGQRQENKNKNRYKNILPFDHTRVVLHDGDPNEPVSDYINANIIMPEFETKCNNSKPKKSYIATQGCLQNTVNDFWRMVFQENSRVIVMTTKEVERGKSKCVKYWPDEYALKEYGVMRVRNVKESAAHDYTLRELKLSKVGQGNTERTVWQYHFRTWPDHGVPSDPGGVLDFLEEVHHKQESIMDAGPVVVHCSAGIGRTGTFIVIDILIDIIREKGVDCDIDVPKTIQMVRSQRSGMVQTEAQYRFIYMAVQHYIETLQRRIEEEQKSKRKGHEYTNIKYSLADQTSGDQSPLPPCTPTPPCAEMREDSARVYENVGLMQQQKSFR",
  "assay": "SHP2 phosphatase assay",
  "type": "biochemical",
  "details": "1 μM IRS-1 peptide, DiFMUP substrate",
  "method": "IC50 values were determined at room temperature in 384-well black polystyrene plate, using a final reaction volume of 15 μL and the following assay buffer conditions: 60 mM Hepes (pH=7.2), 75 mM NaCl, 75 mM KCl, and 1 mM EDTA, 0.05% P-20, 5 mM dithiothreitol (DTT). Full length SHP2 enzyme (diluted to 0.1 nM in reaction buffer) were co-incubated with 1 μM IRS-1 peptide and 0.01 nM to 10 μM compounds of the disclosure for 60 min. The surrogate substrate DiFMUP (5 μL, 100 μM) was added, and incubated at rt for 60 min. The reaction was then quenched by the addition of 5 μL of a 40 μM solution of bpV(Phen). The fluorescence signal was monitored using a microplate reader (Envision, Perkin-Elmer) using excitation and emission wavelengths of 360 nm and 450 nm, respectively. The inhibitor dose-response curves were analyzed using normalized IC50 regression curve fitting with control-based normalization.",
  "data": [
    {"smiles": "N[C@@H]1c2ccccc2OC12CCN(c1ncc(Sc3ccnc(Cl)c3Cl)[nH]c1=O)CC2", "note": "[Example 123, (R)-3-(3-amino-3H-spiro[benzofuran-2,4′-piperidin]-1′-yl)-6-((2,3-dichloropyridin-4-yl)thio)pyrazin-2(1H)-one]", "values": [
      {"measurement": "IC50", "result": "≤ 50", "unit": "nM"}
    ]},
    {"smiles": "C[C@@H]1OCC2(CCN(c3ncc(Sc4ccncc4Cl)[nH]c3=O)CC2)[C@@H]1N", "note": "[Example 128, 3-((3S,4S)-4-amino-3-methyl-2-oxa-8-azaspiro[4.5]decan-8-yl)-6-((3-chloropyridin-4-yl)thio) pyrazin-2(1H)-one]", "values": [
      {"measurement": "IC50", "result": "≤ 50", "unit": "nM"}
    ]},
    {"smiles": "N[C@H]1CCCC12CCN(c1ncc(Sc3ccnc(Cl)c3Cl)[nH]c1=O)CC2", "note": "[Example 135, (S)-3-(1-amino-8-azaspiro[4.5]decan-8-yl)-6-((2,3-dichloropyridin-4-yl)thio)pyrazin-2(1H)-one]", "values": [
      {"measurement": "IC50", "result": "≤ 50", "unit": "nM"}
    ]},
    {"smiles": "N[C@@H]1c2ccccc2NC12CCN(c1ncc(Sc3cccc(Cl)c3Cl)[nH]c1=O)CC2", "note": "[Example 132, (R)-3-(3-aminospiro[indoline-2,4′-piperidin]-1′-yl)-6-((2,3-dichlorophenyl)thio)pyrazin-2 (1H)-one]", "values": [
      {"measurement": "IC50", "result": "≤ 50", "unit": "nM"}
    ]},
    {"smiles": "NC1CCCC(n2ccc(-c3cccc(Cl)c3Cl)cc2=O)C1", "note": "(stereo not drawn) [Example 74, 1-(3-aminocyclohexyl)-4-(2,3-dichlorophenyl)pyridin-2(1H)-one]", "values": [
      {"measurement": "IC50", "result": "≤ 50", "unit": "nM"}
    ]},
    {"smiles": "[2H][C@@]1(N)[C@H](C)OCC12CCN(c1ncc(Sc3cccc(Cl)c3Cl)[nH]c1=O)CC2", "note": "[Example 136]", "values": [
      {"measurement": "IC50", "result": "≤ 50", "unit": "nM"}
    ]},
    {"smiles": "CC1(CN)CCN(c2ncc(Sc3cccc(NC(=O)c4c(O)nc5[nH]ccn5c4=O)c3Cl)[nH]c2=O)CC1", "note": "[Example 32, N-(3-((5-(4-(aminomethyl)-4-methylpiperidin-1-yl)-6-oxo-1,6-dihydropyrazin-2-yl)thio)-2-chlorophenyl)-7-hydroxy-5-oxo-1,5-dihydroimidazo[1,2-a]pyrimidine-6-carboxamide]", "values": [
      {"measurement": "IC50", "result": "≤ 50", "unit": "nM"}
    ]},
    {"smiles": "N[C@@H]1c2ccccc2OC12CCN(c1ncc(Sc3cccc(Cl)c3Cl)[nH]c1=O)CC2", "note": "[Example 87, (R)-3-(3-amino-3H-spiro[benzofuran-2,4′-piperidin]-1′-yl)-6-((2,3-dichlorophenyl)thio)pyrazin-2 (1H)-one]", "values": [
      {"measurement": "IC50", "result": "≤ 50", "unit": "nM"}
    ]},
    {"smiles": "N[C@@H]1COCC12CCN(c1ncc(Sc3ccnc(Cl)c3Cl)[nH]c1=O)CC2", "note": "[Example 88, (S)-3-(4-amino-2-oxa-8-azaspiro[4.5]decan-8-yl)-6-((2,3-dichloropyridin-4-yl)thio)pyrazin-2(1H)-one]", "values": [
      {"measurement": "IC50", "result": "≤ 50", "unit": "nM"}
    ]},
    {"smiles": "C[C@@H]1OCC2(CCN(c3ncc(Sc4ccnc(N)c4F)[nH]c3=O)CC2)[C@@H]1N", "note": "[Example 127, 6-((2-amino-3-fluoropyridin-4-yl)thio)-3-((3S,4S)-4-amino-3-methyl-2-oxa-8-azaspiro[4.5]decan-8-yl)pyrazin-2(1H)-one]", "values": [
      {"measurement": "IC50", "result": "≤ 1000", "unit": "nM"}
    ]},
    {"smiles": "N[C@@H]1c2ccccc2CC12CCN(c1ncc(Sc3cccc(Cl)c3Cl)[nH]c1=O)CC2", "note": "[Example 108]", "values": [
      {"measurement": "IC50", "result": "≤ 50", "unit": "nM"}
    ]},
    {"smiles": "NC1c2nc(Cl)sc2CC12CCN(c1ncc(Sc3ccnc(Cl)c3Cl)[nH]c1=O)CC2", "note": "(stereo not drawn) [Example 116, 3-(4-amino-2-chloro-4,6-dihydrospiro[cyclopenta[d]thiazole-5,4′-piperidin]-1′-yl)-6-((2,3-dichloropyridin-4-yl)thio)pyrazin-2(1H)-one]", "values": [
      {"measurement": "IC50", "result": "≤ 50", "unit": "nM"}
    ]},
    {"smiles": "NC1C2CC2CC12CCN(c1ncc(Sc3cccc(Cl)c3Cl)[nH]c1=O)CC2", "note": "(stereo not drawn) [Example 13, 3-(2-aminospiro[bicyclo[3.1.0]hexane-3,4′-piperidin]-1′-yl)-6-((2,3-dichlorophenyl)thio)pyrazin-2 (1H)-one]", "values": [
      {"measurement": "IC50", "result": "≤ 50", "unit": "nM"}
    ]},
    {"smiles": "Nc1nccc(Sc2cnc(N3CCC4(CCC[C@@H]4N)CC3)c(=O)[nH]2)c1Cl", "note": "[Example 133, (S)-6-((2-amino-3-chloropyridin-4-yl)thio)-3-(1-amino-8-azaspiro[4.5]decan-8-yl)pyrazin-2(1H)-one]", "values": [
      {"measurement": "IC50", "result": "≤ 50", "unit": "nM"}
    ]},
    {"smiles": "CC1(CN)CCN(c2nc3[nH]nc(Nc4cccc(Cl)c4Cl)c3c(=O)[nH]2)CC1", "note": "[Example 34, 6-(4-(aminomethyl)-4-methylpiperidin-1-yl)-3-((2,3-dichlorophenyl)amino)-1,5-dihydro-4H-pyrazolo[3,4-d]pyrimidin-4-one]", "values": [
      {"measurement": "IC50", "result": "≤ 50", "unit": "nM"}
    ]}
  ]
}
